Assay results as given in patent US20170342451A1, “BIOSYNTHESIS OF PACLITAXEL INTERMEDIATE” (Board of Trustees of Michigan State University, priority 2012, published 2017).
Like-named read-outs stand apart in the source and are kept apart here.

How the values were obtained:
TycA-S563A [1] = biological target: T1, TycA-S563A (Brevibacillus parabrevis, UniProt P09095, S563A); conditions: for kcat^NAC: TycA-S563A with NAC at apparent saturation
Procedure: Substrates (S)-α-phenylalanine, (R)-β-phenylalanine, and (2R,3S)-phenylisoserine (each at 1 mM) were separately incubated with TycA or TycA-S563A (20 μg) in the presence of N-acetylcysteamine (NAC; 1 mM), ATP (1 mM), and Mg^2+ (3 mM) to establish steady-state conditions with respect to protein concentration and time at 31° C. Under steady-state conditions, either (S)-phenylalanine, (R)-β-phenylalanine, or (2R,3S)-phenylisoserine at 5, 10, 20, 40, 80, 160, 250, 500, 1000 and 2000 μM was separately incubated with TycA or TycA-S563A (20 μg), ATP (1 mM), Mg^2+ (3 mM), and N-acetylcysteamine (1 mM, ‘NAC’) in duplicate, single stopped-time ([…]) 100 μL assays. The reactions were quenched by acidification to a pH of about 2 (10% formic acid in distilled water). (N-Boc)-α-phenylalanyl-SNAC (1 μM) was added as an internal standard when (S)-α-phenylalanine or (2,3)-phenylisoserine was used as the substrate; alternatively, (N-Boc)-β-phenylalanyl-SNAC (1 μM) was added as an internal standard when (R)-β-phenylalanine was used as the substrate (the synthesis is described below). The samples were analyzed on a Quattro-Premier Electro-Spray Mass Spectrometer coupled with Acquity® UPLC system fitted with a C18 Ascentis Express column (2.5×50 mm, 2.7 μm) at 30° C. An aliquot (5 μL) of each sample was loaded onto the column and the analytes were eluted with a solvent gradient of […] 0.05% triethylamine in distilled water (Solvent B) (held at 2.5% Solvent A for […], increased to 100% A over 5 sec with a 2-min hold, and then returned to 2.5% Solvent A over 5 sec with a 50-sec hold) at a flow rate of 0.4 mL/min. In brief, the effluent from the chromatography column was directed to the Quattro Premier ESI mass spectrometer, in MRM scan mode, to quantify the biosynthetic acyl SNAC products. The transition ions derived from the corresponding molecular ions were m/z 120.06, 131.10 and 105.95 for (S)-α-phenylalanyl-SNAC, (R)-β-phenylalanyl-SNAC and (2R,3S)-phenylisoserinyl-SNAC, respectively. A standard curve was used to convert the peak area under the curve of the monitored fragment ion to concentration for each biosynthetic phenylpropionyl SNAC.
Authentic (5)-α-phenylalanyl, (R/S)-β-phenylalanyl- and (2R,3S)-phenylisoserinyl-SNAC were used to construct the standard curves by correlating the peak area under the curve of the monitored ion to concentration of the standard (at 0.16, 0.32, 0.64, 1.3, 2.5, 5, 10, 20, 40, 80, 160 and 320 μM) using linear regression analysis.
The KM values of TycA and TycA-S563A for N-acetylcysteamine (NAC) was assessed by incubating each enzyme separately with (S)-α-phenylalanine (1 mM), MgCl2 (3 mM), ATP (1 mM), and N-acetylcysteamine at 5, 10, 20, 40, 80, 160, 250, 500, 1000 and 2000 μM at 31° C. for 20 min. The reactions were quenched by acidification to a pH of about 2 (10% formic acid in distilled water), and an internal standard, (N-Boc)-α-phenylalanyl-SNAC (1 μM), was added to each sample to correct for variations of the analyte. The [S-(acyl)-N-(acetyl)]cysteamine (SNAC) thioester products of the enzyme-catalyzed reaction were quantified by a liquid chromatography multiple reaction monitoring (MRM) mass spectrometry technique, and the monitored fragment ion (m/z 120) derived from the SNAC moiety of thioester analyte in the effluent was quantified identically to the procedure described earlier.

TycA-S563A [2] = biological target: T1, TycA-S563A; conditions: CoA with (S)-α-Phe as cosubstrate; for kcat^CoA: turnover with CoA at apparent saturation
Procedure: Under steady-state conditions, (S)-α-phenylalanine, (R)-β-phenylalanine, and (2R,3S)-phenylisoserine at 5, 10, 20, 40, 80, 160, 250, 500, 1000 and 2000 μM were separately incubated with TycA or TycA-S563A (20 μg) for 30 min. At the end of each reaction, and prior to mass spectrometry analysis, acetyl CoA (1 μM) was added as the internal standard to each sample to correct for variations of the analyte. The products of the enzyme-catalyzed reaction were quantified by a liquid chromatography multiple reaction monitoring (LC-ESI-MRM) mass spectrometry technique (Anderson & Hunter, Mol. Cell. Proteomics 5: 573-588 (2006)) on the Quattro-Premier Electro-Spray Mass Spectrometer coupled with Acquity® UPLC system fitted with a C18 Ascentis Express column (2.5×50 mm, 2.7 μm) at 30° C. An aliquot (5 μL) of each sample was loaded onto the column and the analytes were eluted with a solvent gradient of acetonitrile (Solvent A) in 0.05% triethylamine in distilled water (Solvent B). Elution was held at 2.5% Solvent A for 3.17 min, increased to 100% Solvent A over 5 sec with a 2-min hold, and then returned to 2.5% Solvent A over 5 sec with a 50-sec hold. The flow rate employed was 0.4 mL/min. The effluent from the chromatography column was directed to the mass spectrometer where the first quadrupole mass analyzer (in negative ion mode) was set to select for the molecular ion of a biosynthesized acyl CoA product. […]
The KM values of TycA and TycA-S563A for CoA were assessed by incubating each enzyme separately with (S)-α-phenylalanine (1 mM), MgCl2 (3 mM), ATP (1 mM), and CoA at 0.05, 0.1, 0.2, 0.4, 0.8, 1.6, 3.2, 6.4, 12.8 and 25.6 mM at 31° C. for 20 min. […] The products of the enzyme-catalyzed reaction were quantified by LC-ESI-MRM, and the monitored fragment ion (m/z 408) derived from the CoA moiety of the thioester analytes in the effluent was quantified identically to the procedure described earlier herein.

[3] = NAC with (S)-α-Phe as cosubstrate

T1 sequence (P09095 other isoform, or with tags, fused parts or gaps S563A): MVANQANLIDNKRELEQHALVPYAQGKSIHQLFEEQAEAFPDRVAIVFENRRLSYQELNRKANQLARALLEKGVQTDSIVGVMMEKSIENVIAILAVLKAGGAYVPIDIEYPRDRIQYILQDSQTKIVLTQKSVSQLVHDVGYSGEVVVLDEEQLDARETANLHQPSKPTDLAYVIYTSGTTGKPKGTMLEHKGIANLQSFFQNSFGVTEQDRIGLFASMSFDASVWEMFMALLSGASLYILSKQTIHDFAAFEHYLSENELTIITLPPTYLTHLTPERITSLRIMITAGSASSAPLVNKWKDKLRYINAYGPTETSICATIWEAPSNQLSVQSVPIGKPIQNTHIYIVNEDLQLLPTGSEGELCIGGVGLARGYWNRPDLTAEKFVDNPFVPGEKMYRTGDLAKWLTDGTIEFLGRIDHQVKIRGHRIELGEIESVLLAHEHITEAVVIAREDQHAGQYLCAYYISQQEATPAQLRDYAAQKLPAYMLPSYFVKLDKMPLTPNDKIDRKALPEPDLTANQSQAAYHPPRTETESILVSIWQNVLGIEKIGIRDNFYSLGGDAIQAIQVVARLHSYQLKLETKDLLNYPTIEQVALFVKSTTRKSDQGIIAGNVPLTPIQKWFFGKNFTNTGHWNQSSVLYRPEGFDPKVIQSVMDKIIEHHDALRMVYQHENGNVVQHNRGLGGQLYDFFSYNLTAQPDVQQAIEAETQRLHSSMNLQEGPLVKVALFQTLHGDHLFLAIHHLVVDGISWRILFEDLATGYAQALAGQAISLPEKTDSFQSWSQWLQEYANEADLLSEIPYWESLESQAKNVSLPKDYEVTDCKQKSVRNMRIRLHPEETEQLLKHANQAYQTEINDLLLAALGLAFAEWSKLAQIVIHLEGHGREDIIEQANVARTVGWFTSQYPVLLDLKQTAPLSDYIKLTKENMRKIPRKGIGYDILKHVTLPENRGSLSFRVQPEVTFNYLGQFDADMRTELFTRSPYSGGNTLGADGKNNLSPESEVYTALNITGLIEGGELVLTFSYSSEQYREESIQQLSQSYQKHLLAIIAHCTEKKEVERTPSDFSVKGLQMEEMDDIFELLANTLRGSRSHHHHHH

Row | Compound | kcat^NAC (TycA-S563A [1]; [3]) [s⁻¹] | Km (TycA-S563A [1]; TycA-S563A with NAC, NAC with (S)-α-Phe as cosubstrate) [µM] | Km (TycA-S563A [2]; CoA 1 mM, ATP 1 mM, MgCl2 3 mM, 31° C.) [µM] | kcat^CoA (TycA-S563A [2]) [s⁻¹] | decrease in turnover, TycA-S563A compared to TycA (TycA-S563A [1]; NAC cosubstrate) [fold] | increase in KM, TycA-S563A compared to TycA (TycA-S563A [1]; NAC cosubstrate) [fold] | lower catalytic efficiency of TycA-S563A compared to that of TycA (TycA-S563A [1]; NAC cosubstrate) [fold]
1 | N[C@@H](c1ccccc1)[C@@H](O)C(=O)O [(2R,3S)-PheIso, (2R,3S)-phenylisoserine] | 0.00517 ± 0.00083 | 512 ± 43 | 191 ± 10 | 0.00717 ± 0.00017 | – | – | –
2 | N[C@H](CC(=O)O)c1ccccc1 [(R)-β-Phe, (R)-β-phenylalanine] | 0.0004 ± 1.7e-05 | – | – | 0.05 ± 0.00067 | 15 | ~2 | ~30
